# Assay results taken from patent publication US20080235824A1, “Use of Esterase Genes as Selectable Markers for Transforming Plant Cells” (priority 2006, published 2008).
# Key:
# rice grain explants = experiment: Survival of rice grain explants on regeneration medium with Span 20; assay type: cell-based, Oryza sativa japonica var. TP-309; conditions: for Survival of rice grain explants on regeneration medium: surviving/total explants
# Procedure: Span 20 was evaluated as a potential selective agent for use in transformation of rice (Oryza sativa japonica var. TP-309) in a manner similar to that described in Examples 1 and 2, except that the regeneration (shooting) medium used was appropriate for regeneration of rice from callus produced from seeds (Hiei et al., 1997). Selection of rice normally requires longer periods of time than geranium or tomato.
# [1] = system: geranium cv. Avenida leaf petiole explants; experiment: Agrobacterium transformation of geranium with selection on Span 20 or hygromycin; assay type: cell-based, Pelargonium X hortorum; conditions: for No. of rooted shoots / Transformation frequency (%) / No. of independent petiole explants forming shoots: geranium Avenida, pIPG833 bovine PGE, 160 explants; for Transformation frequency (%): confirmed by PCR; for No. of independent petiole explants forming shoots: half in root medium; for Leaf petioles killed: Span 20 at 1%
# Text: Transgenic geranium (Pelargonium X hortorum) cv. “Avenida” plants were created using the Agrobacterium tumefaciens DNA delivery method [Riggs et al., 2001; Sun et al., 2006] using pIPG833. Selection of leaf petiole explants was on 1%, 0.5% and 0.25% Span 20 added to shoot regeneration medium; beginning after three weeks, any shoots that emerged were excised from the petiole piece and transferred to root regeneration medium supplemented with Span at one half the concentration used in the shoot regeneration medium. As a control for comparative purposes, pIPG835 was used (carrying the hygromycin antibiotic resistance gene) for transformation and 10 micrograms/ml hygromycin was used for selection. Span 20 at 1% concentration killed 35% of the leaf petioles after three weeks, and 100% of the petioles after 10 weeks, and no shoots emerged. Span 20 at 0.5% concentration was highly efficient for geranium transformation, allowing no escapes and giving the same confirmed transformation frequency as Span 20 at 0.25%.
# [2] = system: rice var. TP-309 callus produced from seeds; experiment: Agrobacterium transformation of rice with selection on Span 20; assay type: cell-based, Oryza sativa japonica var. TP-309; conditions: for No. of rooted shoots / Transformation frequency (%) / No. of shoots emerged from seed-derived callus: rice TP-309, pIPG833 bovine PGE, 60 explants; for Transformation frequency (%): confirmed by PCR; for No. of shoots emerged from seed-derived callus: half in root medium
# Text: Transgenic rice (Oryza sativa japonica var. TP-309) plants were created using the Agrobacterium tumefaciens DNA delivery method and pIPG833, using callus produced from seeds (Hiei et al., 1997). Selection of was on 1% and 0.5% Span 20 added to shoot regeneration medium; any shoots that emerged were excised from the callus and transferred to root regeneration medium supplemented with Span 20 at one half the concentration used in the shoot regeneration medium. Span 20 at 1% concentration killed over 90% of the callus pieces after 15 weeks and since no shoots emerged, the experiment was terminated. However, three shoots out of 60 rice seeds initially placed into tissue culture emerged on Span 20 and two of these were positive for bovine PGE.
# [3] = system: tobacco cultivar Xanthi leaf explants; experiment: Agrobacterium transformation of tobacco with selection on detergent or kanamycin; assay type: cell-based, Nicotiana tabacum; conditions: pIPG833 bovine PGE, 0.5% Span 20, 70 explants
# [4] = system: tobacco cultivar Xanthi leaf explants; experiment: as above; assay type: cell-based, Nicotiana tabacum; conditions: for Transformation frequency (%): confirmed by PCR
# Text: Transgenic tobacco (Nicotiana tabacum) cultivar “Xanthi” plants were created using the Agrobacterium tumefaciens DNA delivery method [Horsch et al., 1985] using pIPG833. Selection was on 1% or on 0.05% Tween 20 added to both shoot and root regeneration media. As a control for comparative purposes, pIPG786 was used (carrying the nptII gene for kanamycin resistance) for transformation and 100 micrograms/ml kanamycin was used for selection.
# Transgenic tobacco (Nicotiana tabacum) cultivar “Xanthi” plants were created using the Agrobacterium tumefaciens DNA delivery method [Horsch et al., 1985] using pIPG833. Selection was on 1% or on 0.05% Span 20 added to both shoot and root regeneration media.
# Transgenic tobacco (Nicotiana tabacum) cultivar “Xanthi” plants were created using the Agrobacterium tumefaciens DNA delivery method [Horsch et al., 1985] using pIPG875. Selection was on 1% Span 20 added to the shoot regeneration medium and 0.05% Span 20 added to the root regeneration medium.
# [5] = system: geranium petiole explants; experiment: Survival of geranium petiole explants on regeneration medium with detergents; assay type: cell-based, Pelargonium X hortorum; conditions: for Survival of geranium petiole explants on regeneration medium: surviving/total explants
# Procedure: Tween 20, a nonionic, fatty acid ester detergent, was evaluated as a potential selective agent for use in geranium (Pelargonium X hortorum) transformation experiments by placing geranium petiole explants into tissue culture with the addition to Tween 20 to the regeneration (shooting) medium normally used in geranium transformations (Robichon et al., 1995). Tween 20 was added at three concentrations: 1%, 0.1% and 0.01%. Each treatment consisted of 40 sterilized petiole explants placed in four tissue culture plates carrying 10 explants each. Survival of the explants was assayed weekly over four weeks on these media. Potential selective agent Span 20, also a nonionic, fatty acid ester detergent, was similarly evaluated, except that concentrations of 1%, 0.5% and 0.25% were evaluated over a twelve week period of time. The nonionic detergent Triton X-100, which is not a fatty acid ester detergent, was included for comparative purposes.
# [6] = tobacco Xanthi, nematode lipase (pIPG875), 1% Span 20 shoot medium, 0.05% root medium, 50 explants
# [7] = tobacco Xanthi, pIPG833 bovine PGE, 0.5% Span 20, 70 explants
# [8] = tobacco Xanthi, pIPG833 bovine PGE, 1% Span 20, 75 explants
structure (smiles),measurement,setting,value
CCCCCCCCCCCC(=O)OCC(O)C1OCC(O)C1O (stereo not drawn) [Span 20],Survival of rice grain explants on regeneration medium,"rice grain explants; 0.5% Span 20, Week 4",60/60
same,Survival of rice grain explants on regeneration medium,"rice grain explants; 0.5% Span 20, Week 14",12/60
same,Survival of rice grain explants on regeneration medium,"rice grain explants; 0.5% Span 20, Week 20",2/60
same,Survival of rice grain explants on regeneration medium,"rice grain explants; 1% Span 20, Week 4",60/60
same,Survival of rice grain explants on regeneration medium,"rice grain explants; 1% Span 20, Week 14",5/60
same,Survival of rice grain explants on regeneration medium,"rice grain explants; 1% Span 20, Week 20",0/60
same,Killing of rice explants in tissue culture (in words),"rice grain explants; 1% Span 20, summary of Table 3",completely killed all rice explants in twenty weeks
same,No. of rooted shoots,[1]; 0.25% Span 20,33
same,Transformation frequency (%),[1]; 0.25% Span 20,4%
same,No. of independent petiole explants forming shoots,[1]; 0.25% Span 20 shoot medium,33
same,No. of rooted shoots,[1]; 0.5% Span 20,6
same,Transformation frequency (%),[1]; 0.5% Span 20,4%
same,No. of independent petiole explants forming shoots,[1]; 0.5% Span 20 shoot medium,6
same,No. of rooted shoots,[1]; 1% Span 20,0
same,Transformation frequency (%),[1]; 1% Span 20,0%
same,No. of independent petiole explants forming shoots,[1]; 1% Span 20 shoot medium,0
same,Nontransgenic escape plants,"[1]; geranium, pIPG833, Span 20 at 0.25% in shooting medium and 0.125% in rooting medium",81%
same,Leaf petioles killed,"[1]; geranium, pIPG833, after 10 weeks",100%
same,Leaf petioles killed,"[1]; geranium, pIPG833, after three weeks",35%
same,No. of rooted shoots,[2]; 0.5% Span 20,2
same,Transformation frequency (%),[2]; 0.5% Span 20,3%
same,No. of shoots emerged from seed-derived callus,[2]; 0.5% Span 20 shoot medium,3
same,No. of rooted shoots,[2]; 1% Span 20,0
same,Transformation frequency (%),[2]; 1% Span 20,0%
same,No. of shoots emerged from seed-derived callus,[2]; 1% Span 20 shoot medium,0
same,Callus pieces killed,"[2]; rice, pIPG833, Span 20 at 1%, after 15 weeks",over 90%
same,No. of rooted shoots,[3],28
same,Tissue provided with pIPG833 producing shoots,[4]; regeneration medium with 0.05% detergent,41%
same,Tobacco leaf material provided with bovine PGE on pIPG833 producing green shoots,[4]; regeneration medium with 1% detergent,17%
same,No. of independent calli forming shoots,[4]; [6],23
same,No. of rooted shoots,[4]; [6],10
same,Transformation frequency (%),[4]; [6],39%
same,Transformation efficiency,"[4]; tobacco Xanthi, pIPG833, detergent at the 0.05% level",12%
same,No. of independent calli forming shoots,[4]; [7],29
same,Transformation frequency (%),[4]; [7],12%
same,No. of rooted shoots,[4]; [8],13
same,Transformation frequency (%),[4]; [8],8%
same,No. of independent calli forming shoots,"[4]; tobacco Xanthi, pIPG833 bovine PGE, 1% Span 20 in shoot and root media, 75 explants",13
same,Fate of shoots on rooting medium,"[4]; tobacco, pIPG875 nematode lipase, 0.05% Span 20 on rooting medium",more than half of the shoots died
same,Survival of geranium petiole explants on regeneration medium,"[5]; 0.5% detergent, Week 1",46/46
same,Survival of geranium petiole explants on regeneration medium,"[5]; 0.5% detergent, Week 3",35/46
same,Survival of geranium petiole explants on regeneration medium,"[5]; 0.5% detergent, Week 7",23/46
same,Survival of geranium petiole explants on regeneration medium,"[5]; 0.5% detergent, Week 12",5/46
same,Survival of geranium petiole explants on regeneration medium,"[5]; 1% detergent, Week 1",114/114
same,Survival of geranium petiole explants on regeneration medium,"[5]; 1% detergent, Week 3",74/114
same,Survival of geranium petiole explants on regeneration medium,"[5]; 1% detergent, Week 7",11/114
same,Survival of geranium petiole explants on regeneration medium,"[5]; 1% detergent, Week 12",0/114
same,Killing of geranium explants in tissue culture (in words),[5]; summary of Table 1,required twelve weeks to completely kill all geranium explants at the 1% level
